{"source": "patent US6107034A", "about": "“GATA-3 expression in human breast carcinoma” (The Board of Trustees of the Leland Stanford Junior …, priority 1998, dated 2000)", "molecules": {"B1": {"name": "mutant GATA oligonucleotide (dsDNA)", "DNA 1": "CACTTCTTAACAGAAAGTCTTAACTCT", "DNA 2": "AGAGTTAAGACTTTCTGTTAAGAAGTG", "modifications": "[NONE]"}}, "key": {"free GATA-3": {"system": "free GATA-3", "assay": "Gel retardation assay, free GATA-3 binding to GATA DNA probe", "design": "species or system human", "settings": "1 μM, gel shift", "from_the_text": "Acids Res 11, 1475-1489. […] (Santa Cruz Biotechnology) was also used as a competitor."}, "MCF7 cells": {"system": "MCF7 cells", "assay": "Northern blot of MCF7 cells in the presence and absence of β-estradiol", "format": "cell-based, human", "settings": "1×10^-8 M β-estradiol for three days", "protocol": "All cell lines were obtained from American Type Culture Collection (ATCC, Rockville, Md.) and were maintained as described previously. MCF7 cells that were induced with estradiol were grown under normal conditions until approximately 25% confluence. The media was subsequently changed to phenol-red free Minimal Essential Media (Gibco BRL, Gaithersburg, Md.) supplemented with 10% charcoal-stripped fetal calf serum, 10 U/ml penicillin G, 10 μg/ml streptomycin, 6 ng/ml bovine insulin for six days. MCF7 cells were induced with 1×10^-8 M water soluble β-estradiol (Sigma Chemical Company, St. Louis, Mo.) for three days.\nPoly(A+)mRNA was isolated from breast carcinoma cell lines and analyzed by Northern blot as described previously (Carmeci et al. (1997) Genomics 45, 607-617). The GATA-3 cDNA probe was prepared by reverse transcribing 1.6 μg of MCF7 poly(A)+RNA using the GeneAmp® RNA PCR Kit (Perkin Elmer, Foster City, Calif.) as per the manufacturer's recommendations. Resultant cDNA was used as template to PCR amplify (GeneAmp® PCR Kit, Perkin Elmer) the region of the GATA-3 cDNA from +530 to +1712 (numbered in accordance with the GATA-3 cDNA sequence, Genbank accession number X55122) using primers GATA3-2 (SEQ ID NO:3) [5-[…]-3'] and GATA3-4 (SEQ ID NO:4) [5'-[…]-3']. […]"}, "GATA-3 (TnT-GATA3)": {"biological_target": "GATA-3 (TnT-GATA3) (Homo sapiens, UniProt P23771 P23771:1-443)", "sequence (P23771 whole entry, one chain of several)": "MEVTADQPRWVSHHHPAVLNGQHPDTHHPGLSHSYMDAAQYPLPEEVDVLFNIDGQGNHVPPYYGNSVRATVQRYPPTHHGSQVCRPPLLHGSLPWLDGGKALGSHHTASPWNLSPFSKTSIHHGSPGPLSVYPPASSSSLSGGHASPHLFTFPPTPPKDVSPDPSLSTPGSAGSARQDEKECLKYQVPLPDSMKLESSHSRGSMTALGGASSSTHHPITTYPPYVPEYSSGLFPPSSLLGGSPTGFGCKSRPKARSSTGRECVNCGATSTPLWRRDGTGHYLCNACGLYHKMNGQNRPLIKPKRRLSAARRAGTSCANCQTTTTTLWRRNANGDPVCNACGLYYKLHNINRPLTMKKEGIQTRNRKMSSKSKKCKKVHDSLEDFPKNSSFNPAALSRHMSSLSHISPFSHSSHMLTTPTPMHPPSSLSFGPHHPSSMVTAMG", "assay": "competition; mutant cold competitor at 100-fold molar excess; text states only appropriate sequence specificity by gel shift competition", "settings": "tags: none stated", "protocol": "Acids Res* 11, 1475–1489. […] (Santa Cruz Biotechnology) was also used as a competitor.\nIt was important to determine if functional GATA-3 protein is expressed in these cells. The GATA-3 cDNA was cloned from the MCF7 cells and GATA-3 protein was expressed using in vitro transcription/translation. […] MCF7 nuclear extracts were also tested for GATA binding activity."}}}
{"molecule": "CC/C(=C(\\c1ccccc1)c1ccc(OCCN(C)C)cc1)c1ccccc1", "note": "[tamoxifen]", "values": [{"measurement": "interference with free GATA-3 binding DNA", "setting": "free GATA-3", "value": "does not interfere with free GATA-3 binding DNA"}]}
{"molecule": "C[C@]12CC[C@@H]3c4ccc(O)cc4CC[C@H]3[C@@H]1CC[C@@H]2O", "note": "[estradiol, β-estradiol]", "values": [{"measurement": "expression of GATA-3 mRNA", "setting": "MCF7 cells", "value": "did not change"}, {"measurement": "pS2 expression (mRNA)", "setting": "MCF7 cells", "value": "induced"}]}
{"molecule": "B1", "values": [{"measurement": "binding result", "setting": "GATA-3 (TnT-GATA3)", "value": "no binding"}]}
